Results: patent publication US11213517B2, “Pharmaceutical combination comprising a T-type calcium channel blocker” (IDORSIA PHARMACEUTICALS LTD, priority 2016, dated 2022)
Several values for one entry are separate records, joined by “and”; a condition that tells them apart may be missing. Identical values can stand only once. Like-named read-outs stand apart in the source and are kept apart here.

Assays:
[1] = Plasma and brain concentrations of drugs at the end of the audiogenic seizure experiment (LC-MS); format: in vivo, mouse; conditions: for concentration at 1 h: DBA/2J, mouse, oral; for concentration at 1 h / Brain concentration total: analyte VPA, oral gavage, mean ± SEM
Method: Briefly, blood was sampled from the vena cava caudalis with a syringe pre-filled with EDTA (ethylenediamine tetraacetic acid) as anticoagulant and centrifuged to yield plasma (for 10 minutes, at 4° C. and 5000 rpm (rounds per minute)). Brain was sampled and homogenized into one volume of cold phosphate buffer (pH 7.4). Following extraction with methanol, concentrations of the compound in plasma and brain were determined using liquid chromatography coupled to mass spectrometry.
(§1) Different combination efficacy experiments are performed. […] Each experiment consists of four treatment groups: • 1. Vehicle (10% Polyethylene glycol400 (PEG400)/90% methylcellulose (0.5% in water; MC0.5%)), 3 h before exposure to the auditory stimulus+vehicle, 1 h before exposure to the auditory stimulus; • 2. COMPOUND 1 (in 10% PEG400/90% MC0.5%), 3 h before exposure to the auditory stimulus+vehicle, 1 h before exposure to the auditory stimulus; • 3. Vehicle, 3 h before exposure to the auditory stimulus+AED (in 10% PEG400/90% MC0.5%), 1 h before exposure to the auditory stimulus; and • 4. COMPOUND 1 (in 10% PEG400/90% MC0.5%), 3 h before exposure to the auditory stimulus+AED (in 10% PEG400/90% MC0.5%), 1 h before exposure to the auditory stimulus.

[2] = test system: audiogenic seizure-sensitive juvenile DBA/2J mice; assay: Audiogenic seizure-sensitive juvenile DBA/2J mouse model of generalized tonic-clonic seizures; format: in vivo; set-up: key: 0 none, 1 wild running, 2 clonus, 3 hind-limb tonic extension; conditions: oral gavage, mean ± SEM
Text: Audiogenic Seizure-Sensitive Juvenile DBA/2J Mouse Model of Generalized Tonic-Clonic Seizures
The inbred DBA/2J mouse strain carries an increased general susceptibility for acute generalized convulsive seizures induced by either pharmacological, electrical or, as juvenile, auditory stimuli. At the age of 17 to 28 days (juvenile), they show tonic-clonic convulsions when exposed to a loud tone.
Male juvenile DBA/2J mice (22-24 days old, body weight between 6.6 and 14.5 grams) were used. Each mouse was placed individually in the exposure chamber, an hemispheric acrylic glass dome (diameter: 50 cm) within a sound-attenuated box. After 60 seconds of habituation, an auditory stimulus of mixed frequency tone (15-20 kHz at 110 dB) was played from a speaker placed on the top center of the dome.
The sound-attenuated box was equipped with lights and a camera system in order to observe and record the behavioral seizure response classified as following: • stage 0, no response • stage 1, wild running • stage 2, clonus • stage 3, tonic extension of the hind limbs.
as §1

[3] = vehicle 3 h + VPA 100 mg/kg 1 h before stimulus

For CCCC(CCC)C(=O)O [VPA, 2-propylpentanoic acid], the “plasma and brain concentrations after administration of the compounds alone or in combination” value ([1]; COMPOUND 1 and valproic acid, juvenile DBA/2J mice) was “similar”, the concentration at 1 h ([1]; brain, 30 mg/kg, vehicle 3 h + VPA 30 mg/kg 1 h before stimulus, read-out: Brain concentration total) was 1260 ± 399 ng/g and the concentration at 1 h ([1]; brain, 100 mg/kg, vehicle 3 h + VPA 100 mg/kg 1 h before stimulus, read-out: Brain concentration total) was 10100 ± 2040 ng/g. The concentration at 1 h ([1]; brain, 200 mg/kg, vehicle 3 h + VPA 200 mg/kg 1 h before stimulus, read-out: Brain concentration total) was 44200 ± 4090 ng/g, the concentration at 1 h ([1]; brain, COMPOUND 1 10 mg/kg 3 h + VPA 100 mg/kg 1 h before stimulus, read-out: Brain concentration total) was 14600 ± 2910 ng/g and the concentration at 1 h ([1]; brain, COMPOUND 1 10 mg/kg 3 h + VPA 200 mg/kg 1 h before stimulus, read-out: Brain concentration total) was 34700 ± 4440 ng/g. It also gave a concentration at 1 h ([1]; brain, COMPOUND 1 30 mg/kg 3 h + VPA 30 mg/kg 1 h before stimulus, read-out: Brain concentration total) of 1010 ± 117 ng/g, a concentration at 1 h ([1]; brain, COMPOUND 1 30 mg/kg 3 h + VPA 100 mg/kg 1 h before stimulus, read-out: Brain concentration total) of 5950 ± 946 ng/g and a concentration at 1 h ([1]; brain, COMPOUND 1 30 mg/kg 3 h + VPA 200 mg/kg 1 h before stimulus, read-out: Brain concentration total) of 27000 ± 6540 ng/g. For the same compound, the concentration at 1 h ([1]; plasma, 30 mg/kg, vehicle 3 h + VPA 30 mg/kg 1 h before stimulus, read-out: Plasma concentration total) was 23 ± 3.61 µg/mL, the concentration at 1 h ([1]; plasma, 100 mg/kg, vehicle 3 h + VPA 100 mg/kg 1 h before stimulus, read-out: Plasma concentration total) was 53.7 ± 4.04 µg/mL and the concentration at 1 h ([1]; plasma, 200 mg/kg, vehicle 3 h + VPA 200 mg/kg 1 h before stimulus, read-out: Plasma concentration total) was 133 ± 10.7 µg/mL. For the same compound, the concentration at 1 h ([1]; plasma, COMPOUND 1 10 mg/kg 3 h + VPA 100 mg/kg 1 h before stimulus, read-out: Plasma concentration total) was 57.3 ± 3.76 µg/mL, the concentration at 1 h ([1]; plasma, COMPOUND 1 10 mg/kg 3 h + VPA 200 mg/kg 1 h before stimulus, read-out: Plasma concentration total) was 123 ± 11.7 µg/mL and the concentration at 1 h ([1]; plasma, COMPOUND 1 30 mg/kg 3 h + VPA 30 mg/kg 1 h before stimulus, read-out: Plasma concentration total) was 19.9 ± 1.65 µg/mL. It also gave a concentration at 1 h ([1]; plasma, COMPOUND 1 30 mg/kg 3 h + VPA 100 mg/kg 1 h before stimulus, read-out: Plasma concentration total) of 63.4 ± 3.21 µg/mL, a concentration at 1 h ([1]; plasma, COMPOUND 1 30 mg/kg 3 h + VPA 200 mg/kg 1 h before stimulus, read-out: Plasma concentration total) of 110 ± 11.4 µg/mL and a Brain concentration total [1, 3] of 9278 ± 2535 ng/g. For the same compound, the Brain concentration total ([1]; vehicle 3 h + VPA 200 mg/kg 1 h before stimulus) was 24746 ± 3564 ng/g, the “Seizure stage (maximal seizure stage observed during exposure to auditory stimulus)” value (“Seizure stage” below) ([2]; vehicle 3 h + VPA 30 mg/kg 1 h before stimulus) was 2.9 ± 0.1 and the “Seizure stage” value [2, 3] was 2.7 ± 0.2 and 2.8 ± 0.2. For the same compound, the “Seizure stage” value ([2]; vehicle 3 h + VPA 100 mg/kg 1 h before stimulus, listed as valproic acid) was 3.
